From article PMC10488055, “Investigation of Potential cGMP-Specific PDE V and Aminopeptidase N Inhibitors of Allium ampeloprasum L. and Its Bioactive Components: Kinetic and Molecular Docking Studies” (International Journal of Molecular Sciences, 2023)
Where two headings read alike, the source gives them in different places.

How the values were obtained:
aminopeptidase N (APN) = biological target: T1, aminopeptidase N (APN) (Homo sapiens, UniProt P15144); assay: Aminopeptidase N (APN) enzyme activity assay with L-p-NA substrate; type: biochemical; settings: for inhibition of APN in in vitro enzyme assay: at the highest concentration; for enzymatic activity of APN: treatment with 10 mM, without sample 0.38 U
T1 construct: purchased Sigma-Aldrich
Method: Figure 2 Effects of AAE and AAE-derived compounds on APN activity. […] The reaction was started by adding 20 μL enzyme solution (1 mU) and incubated for 60 min at 37 °C. The absorbance of samples were measured at 405 nm to determine the formation of p-nitroaniline. Each value is the mean ± SD of triplicate measurements. * p < 0.05 and ** p < 0.01, compared to each control group (Con). Con, control group treated enzyme only.
The activity of APN was determined according to Melzig et al.. Briefly, the enzyme substrate L-p-NA (2 mM) was dissolved in 50 mM N-(2-hydroxyethyl)piperazine-N’-2ethansulfonic acid (HEPES) buffer (pH 7.4) containing 154 mM NaCl. […] The reaction was started by adding 20 μL enzyme solution (approximately 1 mU in HEPES-buffer) and incubated for 60 min at 37 °C. The samples were measured spectrophotometrically at 405 nm to determine the formation of p-nitroanilmne. APN inhibitory activity (%) = ([Absorbance control without sample − Absorbance control with sample]/Absorbance control without sample) × 100

PDE5 = PDE5 (Homo sapiens, UniProt O76074); assay: Kinetic assay (Lineweaver–Burk) on PDE5;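 on Kcat: pure compound doses in mM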; type: biochemical; set-up: Vmax / Kcat: unit of the concentration uncertain; settings: for Kik/Kiv: ratio according to Yang et al. [27]; for inhibition type against PDE5: from changes of Km and 1/Vmax (Lineweaver–Burk), putative decision system [27]; for Vmax value of PDE5, fold of non-treated group: non-treated 1.039 mU/min = 1.0-fold
Method: Lineweaver–Burk plots were employed to analyze the inhibition of the target enzyme. These plots were represented as 1/velocity (1/V) versus 1/substrate concentration (1/[S]) in the presence or absence of each sample (non-treated (black circle), 10 μg or 1 mM (orange circle), 20 μg or 2 mM (silver circle), 50 μg or 5 mM (yellow circle), and 100 μg or 10 mM (blue circle)) as an inhibitor against PDE5.
(§1) These reactions were conducted in a total volume of 80 μL. by a previously described method. The Michaelis–Menten constant (Km) and maximal velocity (Vmax) were calculated using the x and y intercepts, respectively. […] Additionally, the Kik and Kiv inhibition constants were calculated using previously described methods.

APN [1] = biological target: T2, APN (Homo sapiens, UniProt P15144); assay: Kinetic assay (Lineweaver–Burk) on APN; type: biochemical; settings: for Ki: APN; for inhibition type against APN: from Kik/Kiv ratio, new decision system [27]; for Vmax value of APN, fold of non-treated group: highest concentration, non-treated 0.316 mU/min = 1.0-fold
T2 construct: purchased Sigma-Aldrich
Method: Lineweaver–Burk plots were employed to analyze the inhibition of the target enzyme. These plots were represented as 1/velocity (1/V) versus 1/substrate concentration (1/(S)) in the presence or absence of each sample (non-treated (black circle), 10 μg or 1 mM (blue circle), 20 μg or 2 mM (green circle), 50 μg or 5 mM (orange circle), and 100 μg or 10 mM (purple circle)) as an inhibitor against APN.
as §1

APN [2] = biological target: T2, APN; set-up: method as in doi:10.1101/2021.02.26.433103; settings: interacts with ALA474, ASP473, and SER476; cited from earlier work
[3] = biological target: cGMP-specific PDE V (PDE5) (Homo sapiens, UniProt O76074); assay: cGMP-specific PDE V (PDE5) enzyme activity assay with p-NPPPh substrate; type: biochemical
Method: Following the addition of 10 mM p-NPPPh, the reaction mixture was incubated at 37 °C for 10 min. After the incubation period, the concentration of liberated 4-nitrophenol was determined by measuring its absorbance values at a wavelength of 405 nm using a microplate reader. […] Con, control group treated enzyme only.
The specific substrate used for PDE5 was p-NPPPh, following a previously described method. The enzyme solution was prepared by adding 1 U of PDE5 to a volume of 10 μL in 40 mM Tris-HCl buffer at pH 7.4. The substrate solution (10 mM) was prepared by dissolving the substrate in Tris-HCl buffer at pH 7.4. […] Following the pretreatment, the reaction was initiated and allowed to continue for an additional 10 min at 37 °C upon the addition of 10 mM p-NPPPh in a total reaction volume of 80 μL. Following the incubation period, the absorbance of the mixture was measured at 405 nm using a microplate reader. The enzyme activity was quantified in units, where one unit corresponds to the amount of enzyme needed to hydrolyze 1 micromol of p-NPPPh. The inhibitory activity of PDE5 (%) was calculated by determining the residual activity (U). PDE5 inhibitory activity (%) = ([Residual unit control without sample − Residual unit control with sample]/Residual unit control without sample) × 100

[4] = PDE5 treated with compound 1 (unit uncertain)
[5] = PDE5 treated with compound 2 (unit uncertain)
[6] = PDE5 treated with compound 5 (unit uncertain)
[7] = PDE5 treated with compound 10 (unit uncertain)
[8] = APN treated with compound 10 mM
[9] = calculated by method of ref 27, read-out: Kiv

T1 sequence (P15144 whole entry, species assumed): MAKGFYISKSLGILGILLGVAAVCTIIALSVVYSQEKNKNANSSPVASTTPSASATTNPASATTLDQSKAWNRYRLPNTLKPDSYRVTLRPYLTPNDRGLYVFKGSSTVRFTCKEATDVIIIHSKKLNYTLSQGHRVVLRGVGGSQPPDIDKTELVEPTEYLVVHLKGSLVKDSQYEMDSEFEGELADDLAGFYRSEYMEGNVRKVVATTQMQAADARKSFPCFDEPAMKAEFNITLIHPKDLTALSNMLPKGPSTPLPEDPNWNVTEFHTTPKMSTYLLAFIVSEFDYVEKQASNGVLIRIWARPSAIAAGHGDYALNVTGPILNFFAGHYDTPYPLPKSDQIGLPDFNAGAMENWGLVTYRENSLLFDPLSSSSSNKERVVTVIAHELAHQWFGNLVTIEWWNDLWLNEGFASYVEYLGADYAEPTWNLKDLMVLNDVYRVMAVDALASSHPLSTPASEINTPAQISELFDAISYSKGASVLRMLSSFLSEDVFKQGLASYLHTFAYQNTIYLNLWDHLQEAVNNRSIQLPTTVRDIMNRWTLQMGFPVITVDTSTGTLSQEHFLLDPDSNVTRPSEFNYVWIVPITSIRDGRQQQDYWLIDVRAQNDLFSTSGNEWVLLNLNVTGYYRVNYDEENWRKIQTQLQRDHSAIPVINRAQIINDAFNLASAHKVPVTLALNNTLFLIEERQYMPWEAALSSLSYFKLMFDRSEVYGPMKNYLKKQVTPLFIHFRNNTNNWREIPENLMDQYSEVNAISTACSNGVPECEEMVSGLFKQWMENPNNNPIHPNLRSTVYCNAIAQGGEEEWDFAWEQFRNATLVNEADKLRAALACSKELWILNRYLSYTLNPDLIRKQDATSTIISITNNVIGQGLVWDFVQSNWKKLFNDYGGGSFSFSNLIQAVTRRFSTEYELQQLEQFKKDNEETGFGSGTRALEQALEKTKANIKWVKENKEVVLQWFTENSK
T2 sequence (P15144 whole entry, species assumed): as above

Row | SMILES | inhibition of APN in in vitro enzyme assay (aminopeptidase N (APN)) | enzymatic activity of APN (aminopeptidase N (APN)) | Kik/Kiv (PDE5; PDE5) | Kcat (PDE5; [4]) | Vmax (PDE5; [4]) | Kcat (PDE5; [5]) | Vmax (PDE5; [5]) | Kcat (PDE5; [6]) | Vmax (PDE5; [6]) | Kcat (PDE5; [7]) | Vmax (PDE5; [7]) | inhibition type against PDE5 (PDE5) | Vmax value of PDE5, fold of non-treated group (PDE5; highest concentration) | Kcat (APN [1]; APN treated with compound 1 mM) | Vmax (APN [1]; APN treated with compound 1 mM) | Kcat (APN [1]; APN treated with compound 2 mM) | Vmax (APN [1]; APN treated with compound 2 mM) | Kcat (APN [1]; APN treated with compound 5 mM) | Vmax (APN [1]; APN treated with compound 5 mM) | Kcat (APN [1]; [8]) | further results
1 | O=c1c(O)c(-c2ccc(O)c(O)c2)oc2cc(O)cc(O)c12 [QUE, quercetin] | 33% | 0.25 ± 0.01 U | 9.4 | 5473 ± 234 k s^−1 | 0.724 ± 0.031 mU/min | 5187 ± 166 k s^−1 | 0.686 ± 0.022 mU/min | 2893 ± 60 k s^−1 | 0.383 ± 0.008 mU/min | 1478 ± 38 k s^−1 | 0.195 ± 0.005 mU/min | uncompetitive-type | 0.19 fold | 368.1 ± 6.2 s⁻¹ | 0.297 ± 0.005 mU/min | 316.6 ± 7.4 s⁻¹ | 0.255 ± 0.006 mU/min | 244.1 ± 3.7 s⁻¹ | 0.197 ± 0.003 mU/min | 212.3 ± 2.5 s⁻¹ | IC50 (aminopeptidase N (APN)): > 10 mM; Km value of PDE5, fold of non-treated (PDE5; highest concentration): 0.69 fold; Vmax (APN [1]; [8]): 0.171 ± 0.002 mU/min; Ki (APN [1]; [9]): 11.8 mM; Ki (APN [1]; read-out: Ki): 13.2 mM; inhibition type against APN (APN [1]): noncompetitive-type; Vmax value of APN, fold of non-treated group (APN [1]): 0.54 fold; interaction energy with APN (docking) (APN [2]): -6.9 kcal/mol
2 | C/C=C/[S@+]([O-])C[C@H](N)C(=O)O [IA, isoalliin] | 26% | 0.28 ± 0.01 U | 13.0 | 6587 ± 159 k s^−1 | 0.871 ± 0.021 mU/min | 5489 ± 151 k s^−1 | 0.726 ± 0.020 mU/min | 4387 ± 129 k s^−1 | 0.580 ± 0.017 mU/min | 4018 ± 114 k s^−1 | 0.531 ± 0.015 mU/min | noncompetitive-type | 0.51 fold | 381.3 ± 6.2 s⁻¹ | 0.307 ± 0.005 mU/min | 331.6 ± 7.4 s⁻¹ | 0.267 ± 0.006 mU/min | 298.9 ± 4.9 s⁻¹ | 0.241 ± 0.004 mU/min | 275.8 ± 3.7 s⁻¹ | IC50 [3]: 8.42 mM; inhibition rate of PDE5 ([3]; at the highest concentration (in vitro enzyme assay)): 51%; reduction of PDE5 enzymatic activity ([3]; range over 1, 2, 5, and 10 mM): 17.23–51.41%; Ki (PDE5; PDE5): 10.8 mM; Vmax (APN [1]; [8]): 0.222 ± 0.003 mU/min; Ki (APN [1]; [9]): 23.7 mM; Ki (APN [1]; read-out: Ki): 33.1 mM; inhibition type against APN (APN [1]): mixed-type; Vmax value of APN, fold of non-treated group (APN [1]): 0.70 fold
